Test results: patent publication EP4417607A1, “HETEROCYCLIC COMPOUND AS SOS1 INHIBITOR AND USES THEREOF” (Nanjing Zaiming Pharmaceutical Co., Ltd., priority 2021, dated 2023)

Experiments:
[1] = system: p-ERK pathway in H358 cells; assay: p-ERK pathway inhibition in H358 cells (Advanced phospho-ERK (Thr202/Tyr204) cellular kit, HTRF); assay type: cell-based; settings: Homo sapiens, NCI-H358, 1 h compound incubation
How it was run: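 IC50 from an 8-point four-parameter fit of % inhibition of ERK Thr202/Tyr204 phosphorylation, measured by HTRF 665/620 ratio in lysates. H358 cells were seeded at 50000/well, starved overnight without serum, and exposed to compound 1 h at 37 °C; controls were cell-free (100%) and untreated (0%).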

CYP2D6 = target: T1, CYP2D6 (Homo sapiens, UniProt P10635); assay: CYP2D6 enzymatic activity inhibition in human liver microsomes; assay type: in vitro ADME; settings: IC50, human liver microsome, substrate dextromethorphan
T1 construct: Human liver microsome (Corning 452117); tissue Corning 452117; host or cells: human liver microsomes
Description: (§1) The inhibition of CYP2C9, CYP2D6, and CYP3A4 enzymatic activity by the compound of the present invention was determined using the following method. • I. Experimental materials and instruments • 1. Human liver microsome (Corning 452117) • 2. Na2HPO4 (Sigma SLBZ6180) • 3. KH2PO4 (Sigma SLBT6559) • 4. NADPH (Solarbio 705Y021) • […] • 6. Positive substrates diclofenac (Sigma SLBV3438), dextromethorphan (TRC 3-EDO-175-1), and midazolam (Cerilliant FE01161704) • 7. Positive inhibitors sulfaphenazole (D. Ehrenstorfer GmbH 109012), quinidine (TCI WEODL-RE), and ketoconazole (Sigma 100M1091V) • 7. AB Sciex Triple Quad 5500 liquid chromatography-mass spectrometry system • II. Procedures • 1. Preparation of 100 mM phosphate-buffered saline (PBS): 7.098 g Na2HPO4 was weighed. 500 mL pure water was added. The mixture was dissolved by sonication to give solution A. 3.400 g KH2PO4 was weighed. 250 mL pure water was added. The mixture was dissolved by sonication to give solution B. The solution A was placed in a stirrer, and the solution B was slowly added until the pH reached 7.4 to prepare the 100 mM PBS buffer. • 2. A 10 mM NADPH solution was prepared with a 100 mM PBS buffer. A 10 mM stock solution of the compound of the present invention was diluted with DMSO to give a compound working solution at a concentration of 200× (6000, 2000, 600, 200, 60, 20, and 0 µM). The positive inhibitor stock solution was diluted with DMSO to give a positive inhibitor working solution at a concentration of 200× (sulfaphenazole, 1000, 300, 100, 30, 10, 3, and 0 µM; quinidine/ketoconazole, 100, 30, 10, 3, 1, 0.3, and 0 µM). Substrate working solutions (120 µM diclofenac, 400 µM dextromethorphan, and 200 µM midazolam) at a concentration of 200× were prepared with water, acetonitrile, or acetonitrile/methanol. • 3. […]
(§2) The values were calculated by Excel XLfit 5.3.1.3 to obtain IC50 values for the compounds of the present invention against CYP2C9, CYP2D6, and CYP3A4 as shown in Table 8. […]

CYP3A4 = target: T2, CYP3A4 (Homo sapiens, UniProt P08684); assay: CYP3A4 enzymatic activity inhibition in human liver microsomes; assay type: in vitro ADME; settings: IC50, human liver microsome, substrate midazolam
T2 construct: Human liver microsome (Corning 452117); tissue Corning 452117; host or cells: human liver microsomes
Description: as §1, §2

T1 sequence (P10635 whole entry): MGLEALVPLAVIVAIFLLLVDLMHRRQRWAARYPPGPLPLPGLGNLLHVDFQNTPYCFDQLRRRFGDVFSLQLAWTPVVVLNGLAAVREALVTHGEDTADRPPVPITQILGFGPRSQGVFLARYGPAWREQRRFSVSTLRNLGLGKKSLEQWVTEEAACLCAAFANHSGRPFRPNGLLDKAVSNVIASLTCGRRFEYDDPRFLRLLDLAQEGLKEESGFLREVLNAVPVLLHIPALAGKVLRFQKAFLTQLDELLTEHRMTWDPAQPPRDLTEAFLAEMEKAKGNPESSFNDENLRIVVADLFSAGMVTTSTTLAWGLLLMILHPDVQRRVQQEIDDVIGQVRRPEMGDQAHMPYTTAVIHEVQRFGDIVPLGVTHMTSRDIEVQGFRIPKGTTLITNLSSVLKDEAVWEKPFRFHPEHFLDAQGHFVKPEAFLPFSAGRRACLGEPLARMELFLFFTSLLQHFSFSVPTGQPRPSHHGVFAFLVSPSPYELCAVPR
T2 sequence (P08684 whole entry): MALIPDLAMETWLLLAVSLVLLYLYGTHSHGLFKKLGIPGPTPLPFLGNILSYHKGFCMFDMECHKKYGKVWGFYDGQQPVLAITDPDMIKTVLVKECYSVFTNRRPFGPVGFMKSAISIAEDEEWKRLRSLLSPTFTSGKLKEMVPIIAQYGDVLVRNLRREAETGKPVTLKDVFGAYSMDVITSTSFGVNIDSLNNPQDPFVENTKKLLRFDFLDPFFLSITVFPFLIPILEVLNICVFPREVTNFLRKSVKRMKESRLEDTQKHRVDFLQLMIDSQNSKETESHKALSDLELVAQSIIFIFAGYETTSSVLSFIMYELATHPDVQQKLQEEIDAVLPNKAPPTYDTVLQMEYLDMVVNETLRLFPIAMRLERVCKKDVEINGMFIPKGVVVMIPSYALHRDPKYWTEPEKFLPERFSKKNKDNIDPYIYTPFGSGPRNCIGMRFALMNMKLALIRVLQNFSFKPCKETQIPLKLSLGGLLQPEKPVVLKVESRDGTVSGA

Row | IC50 [1] [nM] | Compound | IC50 (CYP2D6) [nM] | IC50 (CYP3A4) [nM]
1 | 41.9 | COc1c(=O)n(N2CCOCC2)cc2c(N[C@H](C)c3cccc(C(F)F)c3F)nc(C)nc12 [Example 20, (R)-4-((1-(3-(difluoromethyl)-2-fluorophenyl)ethyl)amino)-8-methoxy-2-methyl-6-morpholinepyrido[4,3-d]pyrimidine-7(6H)-one] | – | –
2 | 9.18 | Cc1nc(N[C@H](C)c2cccc(C(F)F)c2F)c2cn(C3(CF)CC3)c(=O)c(N3CCOCC3)c2n1 [Example 34, (R)-4-((1-(3-(difluoromethyl)-2-fluorophenyl)ethyl)amino)-6-(1-(fluoromethyl)cyclopropyl)-2-methyl-8-morpholinylpyrido[4,3-d]pyrimidine-7(6H)-one] | – | –
3 | 44.9 | [2H]C([2H])([2H])Oc1c(=O)n(C2(CF)CC2)cc2c(N[C@H](C)c3cccc(C(F)F)c3F)nc(C)nc12 [Example 23, (R)-4-((1-(3-(difluoromethyl)-2-fluorophenyl)ethyl)amino)-6-(1-(fluoromethyl)cyclopropyl)-8-(methoxy-d3)-2-methylpyrido[4,3-d]pyrimidine-7(6H)-one] | > 30000 | > 30000

Row | Compound | IC50 [1] [nM] | IC50 (CYP2D6) [nM] | IC50 (CYP3A4) [nM]
4 | Cc1nc(N[C@H](C)c2cccc(C(F)F)c2F)c2cn(C3(CF)CC3)c(=O)c(N3CCOC[C@@H]3C)c2n1 [Example 40, 4-(((R)-1-(3-(difluoromethyl)-2-fluorophenyl)ethyl)amino)-6-(1-(fluoromethyl)cyclopropyl)-2-methyl-8-((S)-3-methylmorpholine)pyrido[4,3-d]pyrimidine-7(6H)-one] | 19.9 | > 30000 | > 30000
5 | [2H][C@](C)(Nc1nc(C)nc2c(N3CCOCC3)c(=O)n(C3(CF)CC3)cc12)c1cccc(C(F)F)c1F [Example 55, (R)-4-((1-(3-(difluoromethyl)-2-fluorophenyl)ethyl-1-d)amino)-6-(1-(fluoromethyl)cyclopropyl)-2-methyl-8-morpholinylpyrido[4,3-d]pyrimidine-7(6H)-one] | 30.3 | > 30000 | > 30000
